ChEMBL document CHEMBL3596163, “Discovery of imidazo[1,5-a]pyridines and -pyrimidines as potent and selective RORc inverse agonists” (Bioorg Med Chem Lett, 2015)
Calls of active or inactive are those of the source. No cut-off for these calls is given here.

Columns and labels:
[1] = target: T1, Oxysterols receptor LXR-beta (Homo sapiens) (UniProt P55055); test: Antagonist activity at GAL4-fused human LXRbeta expressed in HEK293T cells assessed as inhibition of T0901317-induced basal transcriptional activity up to 10 uM after 20 hrs by dual-glo luciferase reporter gene assay; assay type: cell-based; details: HEK-293T
T1 sequence (whole entry): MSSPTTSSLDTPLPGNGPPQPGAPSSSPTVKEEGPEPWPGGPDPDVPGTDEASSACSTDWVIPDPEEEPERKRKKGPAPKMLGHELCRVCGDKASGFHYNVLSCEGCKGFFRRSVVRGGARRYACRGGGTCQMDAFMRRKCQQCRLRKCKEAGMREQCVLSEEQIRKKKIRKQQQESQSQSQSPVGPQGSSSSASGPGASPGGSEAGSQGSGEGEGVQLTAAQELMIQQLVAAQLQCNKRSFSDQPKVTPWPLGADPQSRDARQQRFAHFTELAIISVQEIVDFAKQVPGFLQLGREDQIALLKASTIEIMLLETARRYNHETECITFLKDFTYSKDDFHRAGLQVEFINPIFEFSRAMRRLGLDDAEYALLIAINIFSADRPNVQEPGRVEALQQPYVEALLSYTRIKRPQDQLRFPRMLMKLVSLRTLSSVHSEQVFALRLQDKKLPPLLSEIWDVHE

[2] = target: T2, Bile acid receptor (Homo sapiens) (UniProt Q96RI1); test: Antagonist activity at GAL4-fused human FXR expressed in HEK293T cells assessed as inhibition of T0901317-induced basal transcriptional activity up to 10 uM after 20 hrs by dual-glo luciferase reporter gene assay; assay type: cell-based; details: HEK-293T
T2 sequence (whole entry): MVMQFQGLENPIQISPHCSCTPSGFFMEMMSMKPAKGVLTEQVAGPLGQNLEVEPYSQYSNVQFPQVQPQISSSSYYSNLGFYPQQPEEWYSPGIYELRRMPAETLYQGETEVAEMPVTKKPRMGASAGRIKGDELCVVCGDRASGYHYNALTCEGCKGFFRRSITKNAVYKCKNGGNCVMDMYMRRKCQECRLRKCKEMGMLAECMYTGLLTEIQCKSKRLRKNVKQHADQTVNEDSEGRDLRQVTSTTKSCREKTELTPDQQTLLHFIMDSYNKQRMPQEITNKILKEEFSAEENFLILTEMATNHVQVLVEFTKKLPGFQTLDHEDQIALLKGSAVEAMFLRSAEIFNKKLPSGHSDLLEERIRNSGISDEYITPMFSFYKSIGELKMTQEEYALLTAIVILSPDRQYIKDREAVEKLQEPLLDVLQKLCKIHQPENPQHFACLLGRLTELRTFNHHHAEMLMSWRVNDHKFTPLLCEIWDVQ

[3] = target: T3, Nuclear receptor ROR-alpha (Homo sapiens, UniProt P35398); test: Inverse agonist activity at GAL4-fused human RORa expressed in HEK293T cells assessed as suppression of basal transcriptional activity after 20 hrs by dual-glo luciferase reporter gene assay; assay type: cell-based, HEK-293T
T3 sequence (P35398 whole entry): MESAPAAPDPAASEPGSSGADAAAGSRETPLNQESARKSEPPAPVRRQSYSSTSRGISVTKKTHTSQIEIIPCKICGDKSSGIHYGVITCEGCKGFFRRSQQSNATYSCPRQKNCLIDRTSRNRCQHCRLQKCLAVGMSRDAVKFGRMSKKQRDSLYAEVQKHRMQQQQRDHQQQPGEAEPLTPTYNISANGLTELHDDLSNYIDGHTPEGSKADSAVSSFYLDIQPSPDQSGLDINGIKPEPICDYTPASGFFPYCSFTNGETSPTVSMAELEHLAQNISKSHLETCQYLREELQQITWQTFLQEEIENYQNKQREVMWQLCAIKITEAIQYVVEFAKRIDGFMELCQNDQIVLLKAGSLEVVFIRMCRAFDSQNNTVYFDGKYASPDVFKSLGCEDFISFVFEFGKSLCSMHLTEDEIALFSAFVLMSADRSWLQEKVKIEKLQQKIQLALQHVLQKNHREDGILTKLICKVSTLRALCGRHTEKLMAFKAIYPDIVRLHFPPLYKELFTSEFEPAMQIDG

[4] = Lipophilicity, log D of the compound at pH 7.4; assay type: physicochemical; details: buffer
[5] = target: T4, Oxysterols receptor LXR-alpha (Homo sapiens) (UniProt Q13133); test: Antagonist activity at GAL4-fused human LXRalpha expressed in HEK293T cells assessed as inhibition of T0901317-induced basal transcriptional activity up to 10 uM after 20 hrs by dual-glo luciferase reporter gene assay; assay type: cell-based; details: HEK-293T
T4 sequence (whole entry): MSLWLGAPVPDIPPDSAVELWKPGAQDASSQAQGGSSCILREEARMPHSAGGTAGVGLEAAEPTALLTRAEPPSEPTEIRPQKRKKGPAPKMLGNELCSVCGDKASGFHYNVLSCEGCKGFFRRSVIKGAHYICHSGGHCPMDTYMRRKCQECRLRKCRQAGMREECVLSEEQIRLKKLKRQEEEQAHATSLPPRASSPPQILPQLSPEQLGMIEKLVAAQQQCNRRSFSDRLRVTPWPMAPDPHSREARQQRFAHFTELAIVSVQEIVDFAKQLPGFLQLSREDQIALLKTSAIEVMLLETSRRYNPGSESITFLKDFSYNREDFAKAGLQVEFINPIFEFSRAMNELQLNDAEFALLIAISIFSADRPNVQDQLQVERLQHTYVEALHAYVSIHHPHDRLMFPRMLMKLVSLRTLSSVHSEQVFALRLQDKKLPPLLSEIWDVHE

[6] = target: T5, Nuclear receptor subfamily 1 group I member 2 (Homo sapiens, UniProt O75469); test: Antagonist activity at GAL4-fused human PXR expressed in HEK293T cells assessed as inhibition of T0901317-induced basal transcriptional activity up to 10 uM after 20 hrs by dual-glo luciferase reporter gene assay; assay type: cell-based; details: hek-293t
T5 sequence (O75469 whole entry): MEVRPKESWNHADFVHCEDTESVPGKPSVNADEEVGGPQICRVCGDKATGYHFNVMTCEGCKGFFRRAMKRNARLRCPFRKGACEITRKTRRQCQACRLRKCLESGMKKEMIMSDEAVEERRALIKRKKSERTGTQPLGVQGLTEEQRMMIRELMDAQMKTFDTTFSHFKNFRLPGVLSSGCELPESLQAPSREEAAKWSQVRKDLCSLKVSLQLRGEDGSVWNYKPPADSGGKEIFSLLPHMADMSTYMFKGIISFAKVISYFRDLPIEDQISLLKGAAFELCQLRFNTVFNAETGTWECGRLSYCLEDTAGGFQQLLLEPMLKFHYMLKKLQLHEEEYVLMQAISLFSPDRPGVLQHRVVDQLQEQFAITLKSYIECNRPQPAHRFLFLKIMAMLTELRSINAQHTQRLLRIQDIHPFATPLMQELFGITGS

| Structure (SMILES) | inhibition [1] | inhibition [2] | EC50 [3] | logD [4] | inhibition [5] | inhibition (INH) [6] |
| --- | --- | --- | --- | --- | --- | --- |
| O=C(O)c1ccc(-c2nc(C(=O)c3c(Cl)cccc3C(F)(F)F)n3ccccc23)c(F)c1 | inactive | inactive | > 10 µM | 1.8 | inactive | Not Active |
| O=C(O)c1ccc(-c2nc(C(=O)c3c(Cl)cccc3C(F)(F)F)n3c2CCCC3)c(F)c1 | inactive | inactive | > 10 µM | 1.3 | inactive | Not Active |
| O=C(O)c1ccc(-c2nc(C(=O)c3c(Cl)cccc3C3CC3)n3c2CCCC3)c(F)c1 | inactive | inactive | > 10 µM | 1.6 | inactive | Not Active |
| O=C(O)c1ccc(-c2nc(C(=O)c3c(Cl)cccc3C(F)(F)F)n3ccccc23)cc1 | inactive | inactive | > 10 µM | 1.5 | inactive | Not Active |
| O=C(O)c1ccc(-c2nc(C(=O)c3c(Cl)cccc3C(F)(F)F)n3ccccc23)cc1O | inactive | inactive | > 10 µM | 2.5 | inactive | Not Active |
| O=C(O)c1ccc(-c2nc(C(=O)c3c(Cl)cccc3C3CC3)n3cccnc23)cc1O | inactive | inactive | > 10 µM | 1.5 | inactive | Not Active |
